In US20110104159A1, “COMPOSITIONS AND METHODS FOR TREATING, CONTROLLING, REDUCING, AMELIORATING, OR PREVENTING ALLERGY” (priority 2006, published 2011):
pEC50: −log10 of the molar value. Several values for one entry are separate records, joined by “and”; a condition that tells them apart may be missing. Identical values can stand only once. Like-named read-outs stand apart in the source and are kept apart here.

Tests used:
[1] = test system: rabbit paracentesis model; experiment: Clinical evaluation by slit lamp (clinical score), rabbit paracentesis model; format: in vivo; set-up: key to Clinical Score −180 min / Clinical Score −5 min / Clinical Score +115 min: 0: normal; 1: discrete dilatation of iris and conjunctival vessels; 2: moderate dilatation of iris and conjunctival vessels; 3: intense iridal hyperemia with flare in the anterior chamber; 4: intense iridal hyperemia with flare in the anterior chamber and presence of fibrinous exudates; conditions: for Clinical Score −5 min: 5 min before first paracentesis; for Clinical Score −5 min / Clinical Score +115 min / Clinical Score −180 min: individual eye, scale 0-4; for Clinical Score +115 min: 5 min before second paracentesis; for Clinical Score −180 min: basal
caspase-3 = experiment: Caspase-3 activation in human eosinophils (Western blotting); format: cell-based; conditions: 24 h, 0.1% FBS; BOL-303242-X 1-1000 nM, dexamethasone 1000 nM
Description: Human eosinophils were pelleted and resuspended in 100 μl of CER I buffer (NE-PER™ Extraction reagent; Pierce). After 10 min incubation on ice, 5.5 μl of CER II buffer was added and the suspension was resuspended by vortexing, incubated on ice for 1 min and resuspended. The cytoplasmic fraction was separated by centrifugation at 16,000 g for 5 min. The protein content was quantified using a BCA protein assay (Pierce). The proteins of the cytoplasmic extract (50 μg) were denatured at 95° C. for 3 min, then loaded and separated by 15% sodium dodecyl sulfate-polyacrylamide gel electrophoresis (SDS-PAGE). We used MagicMark™ XP Western Standard as a molecular weight standard.
Proteins were transferred to Protran™ nitrocellulose membranes, which were blocked with 5% non-fat milk in TBS (10 mM Tris-HCl, pH 8, containing 150 mM NaCl) plus 0.1% Tween 20 for 1 h at room temperature (25° C.). The blots were probed overnight at 4° C. in TBS containing 0.1% Tween 20, 5% non-fat milk and antibodies with dilutions of 1:1000 for caspase-3 monoclonal antibody or 1:5000 for β-actin antibody (used as a loading control for cytoplasmic cell lysates). The former detects endogenous levels of procaspase-3 (around 32 kDa; p32) and its large subunit cleavage product of approximately 17 kDa (p17). The membranes were incubated with peroxidase-conjugated secondary antibodies at a dilution of 1:8000. […]

[2] = test system: cultured human ocular cells; conditions: cultured human ocular cells [13, 29]; cited from earlier work
human HMC-1 cells = experiment: Ionomycin-induced cytokine/chemokine release in HMC-1 cells (Luminex); format: cell-based; conditions: HMC1, 18 h after ionomycin, 95% confidence limits in brackets
Description: A human mast cell line (HMC-1), a kind gift from Prof.
After 18 h stimulation at 37° C. in a 5% CO2 atmosphere, Interleukin-8 (IL-8) was measured in supernatants obtained from […] with a commercial ELISA kit from R&D Systems. The threshold sensitivity was 5 pg/ml and the inter- and intra-assay variations were less than 5%. The supernatants obtained from HMC-1 cells were aliquoted in duplicates for interleukin-6 (IL-6), IL-8, chemokine (C-C motif) ligand 5 (CCL5)/regulated upon activation, normal T-cell expressed and secreted (RANTES) and tumor necrosis factor-α (TNF-α) analysis using a high-throughput multiplex Luminex technology (Luminex 200 System; Luminex, Austin, Tx, USA) and Beadview software version 1.0 (Upstate Cell Signaling Solutions, Temecula, Calif.). Standard curves for known concentrations of recombinant human cytokines were used to convert median fluorescence intensities to cytokine concentrations in pg/ml. Only the linear portions of the standard curves were used to quantify cytokine concentrations, and in instances where the fluorescence reading exceeded the linear range of the standard curve, an appropriate dilution was performed to ensure that the concentration was in the linear portion of the curve.
The effect of BOL-303242-X on secretion of the reported cytokines and chemokines, 18 h after ionomycin ([…]) stimulation of HMC-1 cells, was determined in comparison to dexamenthasone. Compounds (1 nM-1000 nM) were added 45 min before ionomycin. Values were calculated by analyzing at least three separated experiments where concentration-response curves were measured. ^a95% Confidence limits.

[3] = test system: monkey trabecular meshwork cells; conditions: monkey trabecular meshwork cells [28]; cited from earlier work
EoL-1 cells = experiment: EoL-1 cell apoptosis (annexin V/PI flow cytometry); format: cell-based, human
Description: EoL-1 cells were grown in RPMI-1640+L-glutamine medium (containing 10% FBS) and kept at 37° C. in a 5% CO2 humidified atmosphere. Before each experiment, the cells were stabilized in serum-depleted media (0.1% FBS) for 24 h before treatments.

Cc1ccc2c(NC[C@](O)(CC(C)(C)c3cc(F)cc4c3OCC4)C(F)(F)F)cccc2n1 [BOL-303242-X, (R)-1,1,1-Trifluoro-4-(5-fluoro-2,3-dihydrobenzofuran-7-yl)-4-methyl-2-{[(2-methyl-5-quinolyl)amino]methyl}pentan-2-ol]
Clinical Score −5 min ([1]; 0.1% topical): 0 | Clinical Score +115 min ([1]; 0.1% topical, listed as BOL): 2 (6×) and 3 (2×) | Percentage of eyes with clinical score 2 ([1]; 0.1% topical, +115 min, 8 eyes): 75% | Percentage of eyes with clinical score 3 ([1]; 0.1% topical, +115 min, 8 eyes): 25% | Clinical Score −180 min ([1]; 0.1% topical): 0 | Percentage of eyes with clinical score 0 ([1]; 0.1% topical, −5 min, 8 eyes): 100% | Percentage of eyes with clinical score 0 ([1]; 0.1% topical, −180 min, 8 eyes): 100% | Clinical Score −5 min ([1]; 0.5% topical): 0 | Clinical Score +115 min ([1]; 0.5% topical, listed as BOL): 2 (5×) and 1 (3×) | Percentage of eyes with clinical score 1 ([1]; 0.5% topical, +115 min, 8 eyes): 37.5% | Percentage of eyes with clinical score 2 ([1]; 0.5% topical, +115 min, 8 eyes): 62.5% | Clinical Score −180 min ([1]; 0.5% topical): 0 | Percentage of eyes with clinical score 0 ([1]; 0.5% topical, −5 min, 8 eyes): 100% | Percentage of eyes with clinical score 0 ([1]; 0.5% topical, −180 min, 8 eyes): 100% | Clinical Score −5 min ([1]; 1% topical): 0 | Clinical Score +115 min ([1]; 1% topical): 2 | Percentage of eyes with clinical score 2 ([1]; 1% topical, +115 min, 8 eyes): 100% | Clinical Score −180 min ([1]; 1% topical): 0 | Percentage of eyes with clinical score 0 ([1]; 1% topical, −5 min, 8 eyes): 100% | Percentage of eyes with clinical score 0 ([1]; 1% topical, −180 min, 8 eyes): 100% | Caspase-3 p17 subunit level (Western blot) (caspase-3): marked, concentration-dependent increase of the p17 subunit | Blocking inflammatory cytokine release [2]: equally potent in blocking inflammatory cytokine release | IC50 (human HMC-1 cells; read-out: IC50 (nM), CCL5/RANTES release induced by ionomycin): 88.7 nM | IC50 (human HMC-1 cells; read-out: IC50 (nM), Interleukin-6 release induced by ionomycin): 83.2 nM | IC50 (human HMC-1 cells; read-out: IC50 (nM), Interleukin-8 release induced by ionomycin): 66.5 nM | IC50 (human HMC-1 cells; read-out: IC50 (nM), TNF-α release induced by ionomycin): 43.8 nM | Agonism in increasing myocilin expression [3]: partial glucocorticoid receptor agonist | Efficacy, enhancement of spontaneous EoL-1 cell apoptosis (EoL-1 cells; 0.1% FBS 96 h, compound during the last 72 h): 61% | Percentage of annexin-V+/PI+ (necrotic) EoL-1 cells (EoL-1 cells; 72 h, 5000 nM, n=12, p>0.05 vs without compound (12±5%)): 7±4% | pEC50 (EoL-1 cells; Homo sapiens, EOL1, 0.1% FBS 96 h, compound during the last 72 h, read-out: EC50, enhancement of spontaneous EoL-1 cell apoptosis): 6.50
